According to patent publication US9540343B2 (Gilead Sciences, Inc., priority 2011, dated 2017):

Tests used:
in vitro = settings: human, uninfected MT-4 cells, CC50 (nM), same protocol as Test A, CellTiter-Glo
Experimental: For the antiviral assay, 40 μL of 1× test concentration of 3-fold serially diluted compound in culture medium with 10% FBS was added to each well of a 384-well plate (10 concentrations) in quadruplicate. MT-4 cells were next mixed with HIV-IIIb at an m.o.i of 0.003 for 1 hour, after which time 35 μL of virus/cell mixture (2000 cells) was immediately added to each well containing 40 μL of diluted compound. The plates were then incubated at 37° C. for 5 days. After 5 days of incubation, 25 μl of 2× concentrated CellTiter-Glo™ Reagent (catalog #G7571, Promega Biosciences, Inc., Madison, Wis.) was added to each well containing MT-4 cells. Cell lysis was carried out by incubating at room temperature for 10 min and then chemiluminescence was read.
Test B: Cytotoxicity Assay
Compound cytotoxicity and the corresponding CC50 values was determined using the same protocol as described in the antiviral assay (Test A) except that uninfected cells were used.

HIV-IIIb = assay: Test A: Antiviral assay in MT4 cells; format: cell-based, HIV-1; settings: Human immunodeficiency virus 1, IIIB, MT4, 120 h, read-out: % inhibition at 2 μM, percent inhibition of virus-induced cell killing, from dose response curve at 2 uM drug; MT-4 cells infected with HIV-IIIb, 5 days, CellTiter-Glo

SMILES	CC50 at 5 days (in vitro)	inhibition at 2 µM (HIV-IIIb)
O=C(Cc1c[nH]c2ccc(O)cc12)N[C@@H](Cc1cc(F)cc(F)c1)c1ncccc1Br [Example 38D, (S)—N-(1-(3-bromopyridin-2-yl)-2-(3,5-difluorophenyl)ethyl)-2-(5-hydroxy-1H-indol-3-yl)acetamide]	42600 nM	3%
O=C(Cc1c[nH]c2ccc(F)cc12)N[C@@H](Cc1cc(F)cc(F)c1)c1ncccc1-c1ccc(Cl)cc1Cl [Example 78, (S)—N-(1-(3-(2,4-dichlorophenyl)pyridin-2-yl)-2-(3,5-difluorophenyl)ethyl)-2-(5-fluoro-1H-indol-3-yl)acetamide]	7890 nM	11%
O=C(Cn1nc(C(F)F)c2c1C(F)(F)CCC2(F)F)N[C@@H](Cc1cc(F)cc(F)c1)c1ncncc1-c1cnc2[nH]ccc2c1 [Example 288, (S)—N-(1-(5-(1H-pyrrolo[2,3-b]pyridin-5-yl)pyrimidin-4-yl)-2-(3,5-difluorophenyl)ethyl)-2-(3-(difluoromethyl)-4,4,7,7-tetrafluoro-4,5,6,7-tetrahydro-1H-indazol-1-yl)acetamide]	16400 nM	108%
NC(=O)c1cc(-c2cccnc2[C@H](Cc2cc(F)cc(F)c2)NC(=O)Cn2nc(C(F)(F)F)c3c2C(=O)CCC3(F)F)ccc1F [Example 414]	23400 nM	39%
Cc1c(C#N)c(C(F)(F)F)nn1CC(=O)N[C@@H](Cc1cc(F)cc(F)c1)c1ncccc1-c1ccc(N(C)C)c(C(N)=O)c1 [Example 372, (S)-5-(2-(1-(2-(4-cyano-5-methyl-3-(trifluoromethyl)-1H-pyrazol-1-yl)acetamido)-2-(3,5-difluorophenyl)ethyl)pyridin-3-yl)-2-(dimethylamino)benzamide]	24000 nM	0%
CCc1c(Br)c(C(F)(F)F)nn1CC(=O)N[C@@H](Cc1cc(F)cc(F)c1)c1ncccc1-c1ccc(F)c(C(N)=O)c1 [Example 58D, (S)-5-(2-(1-(2-(4-bromo-5-ethyl-3-(trifluoromethyl)-1H-pyrazol-1-yl)acetamido)-2-(3,5-difluorophenyl)ethyl)pyridin-3-yl)-2-fluorobenzamide]	10000 nM	14%
CC(C)(C)C#Cc1cn(CC(=O)N[C@@H](Cc2cc(F)cc(F)c2)c2ncccc2-c2ccc(F)c(C(N)=O)c2)nc1C(F)(F)F [Example 357, (S)-5-(2-(2-(3,5-difluorophenyl)-1-(2-(4-(3,3-dimethylbut-1-ynyl)-3-(trifluoromethyl)-1H-pyrazol-1-yl)acetamido)ethyl)pyridin-3-yl)-2-fluorobenzamide]	8820 nM	0%
NC(=O)c1cc(-c2cccnc2[C@H](Cc2cc(F)cc(F)c2)NC(=O)Cn2nc(C(F)(F)F)c3c2CCC(O)C3)ccc1F (stereo partly drawn) [Example 448, 5-(2-((1S)-2-(3,5-difluorophenyl)-1-(2-(5-hydroxy-3-(trifluoromethyl)-4,5,6,7-tetrahydro-1H-indazol-1-yl)acetamido)ethyl)pyridin-3-yl)-2-fluorobenzamide]	> 53200 nM	103%
COC(=O)c1c2c(nn1CC(=O)N[C@@H](Cc1cc(F)cc(F)c1)c1ncccc1-c1ccc(F)c(C(N)=O)c1)COC2 [Example 453, (S)-methyl 2-(2-((1-(3-(3-carbamoyl-4-fluorophenyl)pyridin-2-yl)-2-(3,5-difluorophenyl)ethyl)amino)-2-oxoethyl)-4,6-dihydro-2H-furo[3,4-c]pyrazole-3-carboxylate]	> 53200 nM	3%
COc1ccc(-c2cccnc2[C@H](Cc2ccccc2)NC(=O)Cn2nc(C(F)(F)F)c3c2CCCC3)cc1 [Example 21, (S)—N-(1-(3-(4-methoxyphenyl)pyridin-2-yl)-2-phenylethyl)-2-(3-(trifluoromethyl)-4,5,6,7-tetrahydro-1H-indazol-1-yl)acetamide]	15500 nM	28%
O=C(Cn1nc(C(F)F)c2c1C(F)(F)C1CC21)N[C@@H](Cc1cc(F)cc(F)c1)c1ncncc1-c1cnc2[nH]ccc2c1 (stereo partly drawn) [Example 172D, N—((S)-1-(5-(1H-pyrrolo[2,3-b]pyridin-5-yl)pyrimidin-4-yl)-2-(3,5-difluorophenyl)ethyl)-2-(3-(difluoromethyl)-5,5-difluoro-3b,4,4a,5-tetrahydro-1H-cyclopropa[3,4]cyclopenta[1,2-c]pyrazol-1-yl)acetamide]	22100 nM	104%
O=C(Cc1c[nH]c2ccc(=O)[nH]c12)N[C@@H](Cc1cc(F)cc(F)c1)c1ncccc1-c1ccc(Cl)cc1 [Example 37, (S)—N-(1-(3-(4-chlorophenyl)pyridin-2-yl)-2-(3,5-difluorophenyl)ethyl)-2-(5-oxo-4,5-dihydro-1H-pyrrolo[3,2-b]pyridin-3-yl)acetamide]	34200 nM	84%
NC(=O)c1cc(-c2cncnc2[C@H](Cc2cc(F)cc(F)c2)NC(=O)Cn2nc(C(F)F)c3c2C(F)(F)C2CC32)ccc1F (stereo partly drawn) [Example 180, 5-(4-((1S)-1-(2-(3-(difluoromethyl)-5,5-difluoro-3b,4,4a,5-tetrahydro-1H-cyclopropa[3,4]cyclopenta[1,2-c]pyrazol-1-yl)acetamido)-2-(3,5-difluorophenyl)ethyl)pyrimidin-5-yl)-2-fluorobenzamide]	> 50400 nM	93%
Cc1cc(C)c2c(c1)C(CC(=O)N[C@@H](Cc1cc(F)cc(F)c1)c1ncccc1-c1ccc(F)c(C(N)=O)c1)C(=O)N2 (stereo partly drawn) [Example 205, 5-(2-((1S)-2-(3,5-difluorophenyl)-1-(2-(5,7-dimethyl-2-oxoindolin-3-yl)acetamido)ethyl)pyridin-3-yl)-2-fluorobenzamide]	13100 nM	12%
CC(C)c1cc(C(F)(F)F)nn1CC(=O)N[C@@H](Cc1cc(F)cc(F)c1)c1ncccc1-c1ccc(F)c(C(N)=O)c1 [Example 252, (S)-5-(2-(2-(3,5-difluorophenyl)-1-(2-(5-isopropyl-3-(trifluoromethyl)-1H-pyrazol-1-yl)acetamido)ethyl)pyridin-3-yl)-2-fluorobenzamide]	19200 nM	18%
NC(=O)c1cc(-c2cccnc2[C@H](Cc2cc(F)cc(F)c2)NC(=O)Cn2ncc3ccc(O)cc32)ccc1F [Example 588, (S)-5-(2-(2-(3,5-difluorophenyl)-1-(2-(6-hydroxy-1H-indazol-1-yl)acetamido)ethyl)pyridin-3-yl)-2-fluorobenzamide]	21500 nM	2%
NC(=O)c1cc(-c2cccnc2[C@H](Cc2cc(F)cc(F)c2)NC(=O)Cc2ccccc2)ccc1F [Example 592]	> 53200 nM	8%
NC(=O)c1cc(-c2cccnc2[C@H](Cc2cc(F)cc(F)c2)NC(=O)Cn2nc(C(F)F)c3c2C(O)C2CC32)ccc1F (stereo partly drawn) [Example 212, 5-(2-((1S)-1-(2-(3-(difluoromethyl)-5-hydroxy-3b,4,4a,5-tetrahydro-1H-cyclopropa[3,4]cyclopenta[1,2-c]pyrazol-1-yl)acetamido)-2-(3,5-difluorophenyl)ethyl)pyridin-3-yl)-2-fluorobenzamide]	> 53200 nM	69%
